# In US20260184708A1, “PYRIDAZINONES AND METHODS OF USE THEREOF” (GFB (ABC), LLC, priority 2017, published 2026):
# Where two headings read alike, the source gives them in different places.
# Target: T1, TRPC5 (Homo sapiens, UniProt Q9UL62)
# T1 construct: expressed in transfected cells; host or cells: HEK 293
# T1 sequence (Q9UL62 1-973): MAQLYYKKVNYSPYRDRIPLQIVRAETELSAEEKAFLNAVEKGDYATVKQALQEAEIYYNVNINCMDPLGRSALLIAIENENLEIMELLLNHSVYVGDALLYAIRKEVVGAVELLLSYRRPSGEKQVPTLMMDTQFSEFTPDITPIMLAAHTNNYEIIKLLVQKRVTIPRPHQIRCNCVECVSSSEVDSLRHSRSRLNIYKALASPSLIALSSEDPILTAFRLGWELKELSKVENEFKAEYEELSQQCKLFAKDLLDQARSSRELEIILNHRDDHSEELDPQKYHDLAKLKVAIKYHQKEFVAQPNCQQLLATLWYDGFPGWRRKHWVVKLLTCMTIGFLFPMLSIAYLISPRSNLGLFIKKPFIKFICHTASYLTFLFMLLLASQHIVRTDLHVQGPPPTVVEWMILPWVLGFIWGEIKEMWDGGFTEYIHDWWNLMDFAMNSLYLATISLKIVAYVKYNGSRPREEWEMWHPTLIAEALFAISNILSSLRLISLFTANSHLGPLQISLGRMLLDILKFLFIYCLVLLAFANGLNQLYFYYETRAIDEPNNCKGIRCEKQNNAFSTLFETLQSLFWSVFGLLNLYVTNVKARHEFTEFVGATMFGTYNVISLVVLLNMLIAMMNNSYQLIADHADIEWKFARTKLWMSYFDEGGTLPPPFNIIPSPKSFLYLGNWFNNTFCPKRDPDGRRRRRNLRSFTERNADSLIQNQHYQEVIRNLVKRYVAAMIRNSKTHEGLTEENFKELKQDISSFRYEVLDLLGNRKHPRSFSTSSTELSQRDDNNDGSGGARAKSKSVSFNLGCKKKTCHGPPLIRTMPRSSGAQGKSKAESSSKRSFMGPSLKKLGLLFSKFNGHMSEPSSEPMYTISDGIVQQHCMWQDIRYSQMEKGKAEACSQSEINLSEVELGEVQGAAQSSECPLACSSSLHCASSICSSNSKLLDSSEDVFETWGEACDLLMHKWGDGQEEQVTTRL
# Test: TRPC5 Fluorescence Assay - FLIPR format (HEK-TREx hTRPC5, Riluzole stimulation)
# Format: cell-based
# Procedure: • Cell line: ICLN-001633 • Base Cell: HEK • Channel: TRPC5 • Species: Human • Thaw ID: multiple • Passage: multiple
# FLIPR Assay Buffer (Earls Balanced Salt Solution (EBSS) was prepared as follows:
# Test Agent Preparation: Compounds were made up to, or supplied as, a 10 mM stock solution generally using DMSO as the vehicle. 10-point dose response curves were generated using the Echo-550 acoustic dispenser. Compound source plates were made by serially diluting compound stocks to create 10 mM, 1 mM, and 0.1 mM solutions in DMSO into Echo certified LDV plates. The Echo then serially spotted 100% DMSO stock solutions into source dose response plates to generate a 4-fold dilution scheme. 100% DMSO was added to the spotted dose response plates to bring the final volume to 5 μl. […] of the dose response stock plate was then spotted into pre-incubation and stimulation assay plates. 50 μl of pre-incubation buffer and 100 μl of stimulation buffer was then added to the plates resulting in a final assay test concentration range of 30 μM to 0.0001 μM with a final DMSO concentration of 0.3%.
# Experimental Methods: Cells expressing TRPC5 (HEK-TREx hTRPC5) are plated onto 384 well, black PDL-coated microplates and maintained in TRPC5 growth media the day prior to use for experiments. TRPC5 expression is induced by the application of […] tetracycline at the time of plating. Media is removed from the plates and 10 μl of 4 μM of Fluo-4 AM (mixed with equal volume of Pluronic F-127) in EBSS is added to the cells. Cells are incubated at room temperature, protected from light, for 60-90 minutes. After the incubation period, the dye is removed and replaced with 10 μl of EBSS. Cell, pre-incubation and stimulation plates are loaded onto the FLIPR-II and the assay is initiated. The FLIPR measures a 10 second baseline and then adds 10 μl of 2× compounds (or controls). Changes in fluorescence are monitored for an additional 5 minutes. After the 5 minute pre-incubation, 20 μl of 2× Riluzole (with 1× compound or controls) is added to the cell plate. The final Riluzole stimulation concentration in the assay is 30 μM. After the Riluzole addition, changes in fluorescence are monitored for an additional 5 minutes.
# Test Agent Effect: Test agent modulation of TRPC5 calcium response was determined as follows. After the Riluzole, fluorescence was monitored for a 5 minute period. The maximum relative fluorescene response (minus the control response of 1 μM of the control inhibitor) was captured and exported from the FLIPR. Test agent effect was calculated as % inhibition using the following formula: % inhibition=((RFU Test Agent−Plate Average RFU REF INHIB)/(Plate Average RFU Control−Plate Average RFU REF INHIB))×100
# [1] = Table 10, read-out: TRPCS-FLIPR IC50
# [2] = Table 7, read-out: TRPC5-FLIPR IC50
# [3] = Table 9, read-out: hTRPCS-FLIPR IC50
SMILES,IC50 [1] [nM],also measured
CCc1ncsc1Cn1nnc2c1CCN(c1cn[nH]c(=O)c1Cl)C2,0.01 to 1000,–
O=c1[nH]ncc(N2CCc3c(nnn3Cc3ccc(F)cc3CN3CCOCC3)C2)c1Cl,1000 to 5000,–
CN(C)Cc1cc(F)ccc1Cn1nnc2c1CCN(c1cn[nH]c(=O)c1Cl)C2,1000 to 5000,–
C[C@@H](c1ccc(F)cc1CN1CCOCC1)n1nnc2c1CCN(c1cn[nH]c(=O)c1Cl)C2,1000 to 5000,–
O=C(c1nn(Cc2ccccc2C(F)F)c2c1CN(c1cn[nH]c(=O)c1Cl)CC2)N1CCOCC1,0.01 to 1000,–
C[C@@H]1Cc2c(nnn2[C@H](C)c2ccc(F)cc2C(F)(F)F)CN1c1cn[nH]c(=O)c1Cl,0.01 to 1000,–
CNC(=O)c1nn(Cc2ccccc2C(F)F)c2c1CN(c1cn[nH]c(=O)c1Cl)CC2,0.01 to 1000,–
C[C@H](c1ccc(F)cc1CN1CCOCC1)n1nnc2c1CCN(c1cn[nH]c(=O)c1Cl)C2,1000 to 5000,–
O=c1[nH]ncc(N2CCc3c(ncn3Cc3cccnc3[C@H](O)C(F)(F)F)C2)c1Cl,0.01 to 1000,–
C[C@@H](c1ccc(F)cc1CN1CCN(C)CC1)n1nnc2c1CCN(c1cn[nH]c(=O)c1Cl)C2,5000 to 10000,–
Cn1c(=O)c2c(n1Cc1ccccc1C(F)F)CCN(c1cn[nH]c(=O)c1Cl)C2,0.01 to 1000,–
COCc1ncccc1CN1CCN(c2cn[nH]c(=O)c2Cl)CC1 [drawing 926],–,IC50 [2]: 0.01 to 1000 nM
CCc1ncccc1[C@H](C)n1nnc2c1CCN(c1cn[nH]c(=O)c1Cl)C2 [drawing 928],–,IC50 [2]: 0.01 to 1000 nM
O=c1[nH]ncc(N2CCc3c(ncn3Cc3cccnc3CC(F)F)C2)c1Cl [drawing 929],–,IC50 [2]: 0.01 to 1000 nM
COc1nn(Cc2ccccc2C(F)F)c2c1CN(c1cn[nH]c(=O)c1Cl)CC2 [drawing 931],–,IC50 [2]: 0.01 to 1000 nM
O=c1[nH]ncc(N2CCc3c(c(=O)[nH]n3Cc3ccccc3C(F)F)C2)c1Cl [drawing 936],–,IC50 [2]: 0.01 to 1000 nM
COCc1ncccc1CN1CCN(c2cn[nH]c(=O)c2Cl)CC1 [drawing 1030],–,IC50 [3]: 0.01 to 1000 nM
O=c1[nH]ncc(N2CCN(Cc3ccccc3C(F)(F)F)CC2)c1Cl [drawing 1036],–,IC50 [3]: 1000 to 5000 nM
O=c1[nH]ncc(N2CCc3c(c(=O)[nH]n3Cc3ccccc3C(F)F)C2)c1Cl [drawing 1052],0.01 to 1000,–
O=c1[nH]ncc(N2CCc3c(ncn3Cc3cccnc3CC(F)F)C2)c1Cl [drawing 1058],0.01 to 1000,–
CCc1ncccc1[C@H](C)n1nnc2c1CCN(c1cn[nH]c(=O)c1Cl)C2 [drawing 1059],0.01 to 1000,–
CN1CCN(Cc2nn(Cc3ccccc3C(F)F)c3c2CN(c2cn[nH]c(=O)c2Cl)CC3)C(=O)C1 [drawing 1111],0.01 to 1000,–

# More lines, main results first:
IC50 [1] [nM],SMILES,also measured
0.01 to 1000,O=c1[nH]ncc(N2CCc3c(nc(Oc4cccc(F)c4)n3Cc3ccccc3C(F)(F)F)C2)c1Cl,–
1000 to 5000,O=c1[nH]ncc(N2CCc3c(nnn3Cc3ccccc3CO)C2)c1Cl,–
0.01 to 1000,CCCOc1nc2c(n1Cc1ccccc1C(F)(F)F)CCN(c1cn[nH]c(=O)c1Cl)C2,–
0.01 to 1000,N#Cc1nn(Cc2ccccc2C(F)F)c2c1CN(c1cn[nH]c(=O)c1Cl)CC2,–
0.01 to 1000,O=c1[nH]ncc(N2CCc3c(cnn3Cc3cccnc3[C@@H](O)C(F)(F)F)C2)c1Cl,–
1000 to 5000,CO[C@@H]1CN(c2cn[nH]c(=O)c2Cl)Cc2nnn(Cc3ccccc3C(F)F)c21,–
0.01 to 1000,COc1nn(Cc2ccccc2C(F)(F)F)c2c1CN(c1cn[nH]c(=O)c1Cl)CC2,–
1000 to 5000,N[C@@H](c1cc(F)ccc1Cn1nnc2c1CCN(c1cn[nH]c(=O)c1Cl)C2)C(F)(F)F,–
0.01 to 1000,C[C@H]1c2nnn([C@@H](C)c3ccc(F)cc3C(F)(F)F)c2CCN1c1cn[nH]c(=O)c1Cl,–
1000 to 5000,CO[C@H]1CN(c2cn[nH]c(=O)c2Cl)Cc2nnn(Cc3ccccc3C(F)F)c21,–
0.01 to 1000,C[C@H]1c2nnn([C@@H](C)c3ccccc3C(F)(F)F)c2CCN1c1cn[nH]c(=O)c1Cl,–
1000 to 5000,Cn1c(=O)c2c(n1Cc1ccccc1C(F)(F)F)CCN(c1cn[nH]c(=O)c1Cl)C2,–
0.01 to 1000,N[C@H](c1cc(F)ccc1Cn1nnc2c1CCN(c1cn[nH]c(=O)c1Cl)C2)C(F)(F)F,–
0.01 to 1000,C[C@@H](c1cc(F)ccc1C(F)(F)F)n1nnc2c1CCN(c1cn[nH]c(=O)c1Cl)C2,–
1000 to 5000,O=c1[nH]ncc(C2=Cc3nnn(Cc4ccccc4C(F)(F)F)c3CC2)c1Cl,–
0.01 to 1000,COc1nn(Cc2ccccc2C(F)F)c2c1CN(c1cn[nH]c(=O)c1Cl)CC2 [drawing 1056],–
